# From US20180179198A1, “TRICYCLIC MODULATORS OF TNF SIGNALING” (AbbVie Inc., priority 2015, published 2018)
# Where two headings read alike, the source gives them in different places.
# Molecular target: TNFα trimer (Homo sapiens, UniProt P01375)
# Assay: TNFα FP Competitive Binding Assay
# How it was run: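 Fluorescence polarization displacement: 20 nM TNFα trimer (60 nM protein) with 1 nM fluorescein-labelled bis-isoquinoline probe in HEPES/NaCl/EDTA/Triton X-100 buffer. 12-point 1:3 compound series, top final 338 μM (3.4% DMSO) or 100 μM (2.0% DMSO); 18-24 h at 37 °C, then 1 h rt before background-subtracted mP read; variable-slope curve fit.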
# [1] = fluorescence polarization competition, 20 nM TNFα trimer, 1 nM OregonGreen488 probe, read-out: TNF IC50 (TNFα FP binding assay IC50)
# [2] = TNFα FP competitive binding assay, class symbols A/B/C, read-out: TNF IC50
# Chain of TNFα trimer (P01375 77-233 limits assumed): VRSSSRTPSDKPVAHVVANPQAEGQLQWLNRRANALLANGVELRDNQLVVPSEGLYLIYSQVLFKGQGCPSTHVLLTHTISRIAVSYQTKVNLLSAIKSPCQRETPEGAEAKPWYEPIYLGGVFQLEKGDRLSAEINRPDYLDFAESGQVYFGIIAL
IC50 [1],IC50 [2],SMILES,also measured
,< 1000 nM,CC(C)(O)c1ncc(-c2ccc3nc4n(c3c2)[C@@H](c2ccccc2)CCC4)cn1 [Y.2],
10000 to 100000 nM,,O[C@H]1CN(c2ncc(-c3ccc4nc5n(c4c3)[C@@H](c3ccccc3)COC5)cn2)C[C@@H]1O [G.25],
,1000 to 10000 nM,CN1CCN(c2ncc(-c3ccc4nc5n(c4n3)C3(CCOc4ccccc43)COC5)cn2)CC1 (centres unmarked) [BB.8],
1000 to 10000 nM,,CC(C)(O)c1ncc(-c2cc3c(cn2)nc2n3C(c3ccccc3)CC2)cn1 (centres unmarked) [P.2],
,< 1000 nM,OC1CCC(Oc2cc(-c3ccc4nc5n(c4n3)C3(COC5)COc4ccccc43)ccn2)C1 (centres unmarked) [AX.3],
< 1000 nM,,CC1CN(c2ncc(-c3ccc4nc5n(c4c3)[C@@H](c3ccccc3)COC5)cn2)CCO1 (some centres unmarked) [G.2],
,< 1000 nM,COc1ccccc1C1CCCc2nc3ccc(-c4cnc(N5CCCOCC5)nc4)cn3c21 (centres unmarked) [AJ.7],
1000 to 10000 nM,,CS(=O)(=O)[C@@H]1CCN(c2ncc(-c3ccc4nc5n(c4c3)[C@@H](c3ccccc3)COC5)cn2)C1 [G.18],
10000 to 100000 nM,,O=C(O)C1CN(c2ncc(-c3ccc4nc5n(c4c3)C(c3ccccc3)CCC5)cn2)C1 (centres unmarked) [H.1],
1000 to 10000 nM,,O=C1NCNC12CCN(c1ncc(-c3ccc4nc5n(c4c3)[C@@H](c3ccccc3)COC5)cn1)CC2 [G.6],
,< 1000 nM,c1ccc2c(c1)OCCC21OCCc2nc3ccc(-c4cnc(N5CCOCC5)nc4)nn3c21 (centres unmarked) [AY.2],
< 1000 nM,,"OC1CCN(c2ncc(-c3ccc4nc5n(c4n3)C(c3cccc(F)c3)CC5)cn2)CC1 (centres unmarked) [M.4, 1-(5-(8-(3-fluorophenyl)-7,8-dihydro-6H-pyrrolo[2′,1′:2,3]imidazo[4,5-b]pyridin-2-yl)pyrimidin-2-yl)piperidin-4-ol]",
,1000 to 10000 nM,CCOC(=O)CNc1ncc(-c2ccc3nc4c(n3c2)C(c2ccccc2OC)CCCC4)cn1 (centres unmarked) [S.2],
,< 1000 nM,COc1ccccc1[C@H]1CCc2nc3ccc(-c4cnc(N5CCN6C(=O)NC[C@H]6C5)nc4)nc3n21 [AO.2],
,1000 to 10000 nM,c1ccc([C@H]2CCc3nc4ccc(-c5ccnc(OC6CCCCC6)c5)nc4n32)cc1 [AS.3],
,< 1000 nM,c1ccc2c(c1)CCC21COCc2nc3ccc(-c4cnc(N5CCOCC5)nc4)nc3n21 (centres unmarked) [AV.8],
,1000 to 10000 nM,c1ccc(C2COCc3nc4ccc(-c5cnc(-n6cccn6)cn5)cc4n32)cc1 (centres unmarked) [T.21],
,< 1000 nM,OC1CC2(CCN(c3ncc(-c4ccc5nc6n(c5c4)[C@@H](c4ccccc4)COC6)cn3)CC2)C1 [W.2],
,10000 to 100000 nM,c1ccc(C2COCc3nc4ccc(-c5cnc6nccnc6c5)cc4n32)cc1 (centres unmarked) [T.19],
10000 to 100000 nM,,c1ccc([C@@H]2CCc3nc4ccc(-c5cnc(N6CCOCC6)nc5)cc4n32)cc1 [C.1],
1000 to 10000 nM,,Cc1ccc(C2(O)CCCc3nc4ccc(-c5cnc(N6CCOCC6)nc5)cn4c32)cc1 (centres unmarked) [I.8],

# Continued, molecule first:
SMILES,IC50 [1],IC50 [2],also measured
"O[C@H]1CC[C@H](Oc2cc(-c3ccc4nc5n(c4n3)[C@@H](c3ccccc3)CC5)ccn2)CC1 [Example 83, (1R,4R)-4-((4-((R)-8-Phenyl-7,8-dihydro-6H-pyrrolo[2′,1′:2,3]imidazo[4,5-b]pyridin-2-yl)pyridin-2-yl)oxy)cyclohexanol]",< 1000 nM,,
"OC1CCN(c2ncc(-c3ccc4nc5n(c4c3)[C@@H](c3ccccc3)COC5)cn2)CC1 [Example 4, (S)-1-(5-(4-Phenyl-3,4-dihydro-1H-benzo[4,5]imidazo[2,1-c][1,4]oxazin-7-yl)pyrimidin-2-yl)piperidin-4-ol]",< 1000 nM,,
COc1ccccc1C1CCCc2nc3ccc(-c4cnc(N5CCC(O)C(F)(F)C5)nc4)cn3c21 (centres unmarked) [AJ.4],,< 1000 nM,
c1ccc(C2COCc3nc4ccc(-c5cnc(NC6CCCC6)nc5)cc4n32)cc1 (centres unmarked) [T.17],,1000 to 10000 nM,
"CC(C)[C@H](N)C(=O)OC1CCN(c2ncc(-c3ccc4nc5n(c4n3)[C@@H](c3ccccc3)CC5)cn2)CC1 [Example 46, (S)-1-(5-((R)-8-Phenyl-7,8-dihydro-6H-pyrrolo[2′,1′:2,3]imidazo[4,5-b]pyridin-2-yl)pyrimidin-2-yl)piperidin-4-yl 2-amino-3-methylbutanoate]",1000 to 10000 nM,,
FC(F)(F)c1ccc(-c2ccc3nc4n(c3c2)C(c2ccccc2)COC4)cn1 (centres unmarked) [T.33],,1000 to 10000 nM,
CS(=O)(=O)C1CCN(c2ncc(-c3ccc4nc5n(c4c3)[C@@H](c3ccccc3)COC5)cn2)C1 (some centres unmarked) [G.29],1000 to 10000 nM,,
"CC(C)(O)c1ncc(-c2ccc3nc4n(c3n2)C2(COC4)COc3ccccc32)cn1 (centres unmarked) [E.4, 2-(5-(6′,8′-Dihydro-2H-spiro[benzofuran-3,9′-pyrido[3′,2′:4,5]imidazo[2,1-c][1,4]oxazin]-2′-yl)pyrimidin-2-yl)propan-2-ol]",< 1000 nM,,
"COc1ccccc1C1CCCc2nc3ccc(-c4ccc(C(=O)O)s4)cn3c21 (centres unmarked) [Example 23, 5-(9-(2-Methoxyphenyl)-6,7,8,9-tetrahydrobenzo[4,5]imidazo[1,2-a]pyridin-2-yl)thiophene-2-carboxylic acid]",1000 to 10000 nM,,
O=C1NCC2CN(c3ncc(-c4ccc5nc6n(c5c4)C(c4ccccc4F)COC6)cn3)CCN12 (centres unmarked) [AH.1],,< 1000 nM,
c1ccc([C@H]2CCc3nc4ccc(-c5ccnc(OC6CCC67CCNC7)c5)nc4n32)cc1 (some centres unmarked) [AT.3],,1000 to 10000 nM,
"CC(C)(O)c1ncc(-c2ccc3nc4n(c3n2)C2(COC4)CC(O)c3ccccc32)cn1 (centres unmarked) [Example 81, 2′-(2-(2-Hydroxypropan-2-yl)pyrimidin-5-yl)-2,3,6′,8′-tetrahydrospiro[indene-1,9′-pyrido[3′,2′:4,5]imidazo[2,1-c][1,4]oxazin]-3-ol]",1000 to 10000 nM,,
OC1CCC(Oc2cc(-c3ccc4nc5n(c4n3)[C@@H](c3ccccc3)CC5)ccn2)CC1 (some centres unmarked) [AQ.2],,< 1000 nM,
Cc1cc(-c2ccc3nc4n(c3c2)C(c2ccccc2)COC4)cnc1OC(C)C (centres unmarked) [T.30],,1000 to 10000 nM,
"c1ccc2c(c1)OCC21COCc2nc3ccc(-c4cnc(N5CCNCC5)nc4)nc3n21 (centres unmarked) [Example 66, 2′-(2-(Piperazin-1-yl)pyrimidin-5-yl)-2H,6′H,8′H-spiro[benzofuran-3,9′-pyrido[3′,2′:4,5]imidazo[2,1-c][1,4]oxazine]]",1000 to 10000 nM,,
CN1CCC(C2CCN(c3ncc(-c4ccc5nc6n(c5c4)[C@@H](c4ccccc4)COC6)cn3)CC2)CC1 [G.21],1000 to 10000 nM,,
"CC(=O)N1CCN(c2ncc(-c3ccc4nc5n(c4n3)[C@@H](c3ccccc3)CC5)cn2)C[C@@H]1C [Example 42, 1-((S)-2-Methyl-4-(5-((R)-8-phenyl-7,8-dihydro-6H-pyrrolo[2′,1′:2,3]imidazo[4,5-b]pyridin-2-yl)pyrimidin-2-yl)piperazin-1-yl)ethanone]",< 1000 nM,,
CNC(=O)c1cccc(-c2ccc3nc4n(c3c2)C(c2ccccc2)CC4)c1 (centres unmarked) [A.43],1000 to 10000 nM,,
COc1ccccc1[C@H]1COCc2nc3ccc(-c4cnc(N5CCC(O)CC5)nc4)nc3n21 [AC.1],,< 1000 nM,

SMILES,IC50 [1],IC50 [2],also measured
N#CCc1cccc(-c2ccc3nc4n(c3c2)C(c2ccccc2)CC4)c1 (centres unmarked) [A.41],1000 to 10000 nM,,
CN1CCN(c2ncc(-c3ccc4nc5n(c4n3)C3(COC5)COc4ccccc43)cn2)CC1 (centres unmarked) [AU.5],,1000 to 10000 nM,
CC(O)(CC1CC1)c1ncc(-c2ccc3nc4n(c3n2)[C@@H](c2ccccc2)CC4)cn1 (some centres unmarked) [AL.5],,1000 to 10000 nM,
OC1CCN(c2ncc(-c3ccc4nc5n(c4n3)C3(COCc4ccccc43)COC5)cn2)CC1 (centres unmarked) [BO.1],,,"IC50 (Table BO, read-out: TNF IC50): 1000 to 10000 nM"
OC1CCN(c2ncc(-c3ccc4nc5n(c4n3)C(c3cccc(F)c3)COC5)cn2)CC1 (centres unmarked) [AI.1],,< 1000 nM,
CS(=O)(=O)c1ccc(-c2ccc3nc4n(c3c2)C(c2ccccc2)COC4)cn1 (centres unmarked) [T.2],,1000 to 10000 nM,
COC(=O)CC1CC=C(c2ccc3nc4n(c3n2)[C@@H](c2ccccc2)CC4)CC1 (some centres unmarked) [BN.1],,,"IC50 (Table BN, read-out: TNF IC50): 1000 to 10000 nM"
C[C@@H]1CN(c2ncc(-c3ccc4nc5n(c4n3)[C@]3(COC5)COc4ccccc43)cn2)CCN1C(=O)CO [BM.1],,,"IC50 (Table BM, read-out: TNF IC50): 1000 to 10000 nM"
c1ccc([C@H]2CCc3nc4ccc(-c5ccnc(OC6CCOC6)c5)nc4n32)cc1 (some centres unmarked) [AS.1],,1000 to 10000 nM,
c1ccc([C@H]2CCc3nc4ccc(-c5cnn(C6CCOCC6)c5)nc4n32)cc1 [AW.6],,1000 to 10000 nM,
CN(C)C(=O)c1ccc(-c2ccc3nc4n(c3c2)C(c2ccccc2)CC4)cc1 (centres unmarked) [A.10],< 1000 nM,,
O=C(O)CCC1CCN(c2ncc(-c3ccc4nc5n(c4c3)[C@@H](c3ccccc3)COC5)cn2)CC1 [G.10],1000 to 10000 nM,,
c1ccc([C@H]2COCc3nc4ccc(-c5cnc(N6CCC7(COC7)C6)nc5)cc4n32)cc1 [G.16],1000 to 10000 nM,,
c1ccc(C2CCc3nc4ccc(-c5cnc(C6CC6)nc5)cc4n32)cc1 (centres unmarked) [A.8],< 1000 nM,,
CN1CCOc2cc(-c3ccc4nc5n(c4c3)C(c3ccccc3)COC5)cnc21 (centres unmarked) [T.11],,1000 to 10000 nM,
Cc1ccc(-c2ccc3nc4n(c3c2)C(c2ccccc2)CC4)cn1 (centres unmarked) [A.14],1000 to 10000 nM,,
"COc1ccccc1C1COCc2nc3ccc(-c4cnc(C(C)(C)O)nc4)cn3c21 (centres unmarked) [Example 32, 2-(5-(4-(2-Methoxyphenyl)-3,4-dihydro-1H-pyrano[3′,4′:4,5]imidazo[1,2-a]pyridin-7-yl)pyrimidin-2-yl)propan-2-ol]",< 1000 nM,,
OC1CN(c2ncc(-c3ccc4nc5n(c4n3)C3(CCOc4ccccc43)COC5)cn2)C1 (centres unmarked) [BB.4],,< 1000 nM,
O=C1NCC2CN(c3ncc(-c4ccc5nc6n(c5c4)C(c4cccc(C(F)(F)F)c4)COC6)cn3)CCN12 (centres unmarked) [AH.4],,< 1000 nM,
